Experimental data taken from patent US7217722B2 (Kirin Beer Kabushiki Kaisha, priority 2000, dated 2007).
Read-outs that look alike come from different tables or passages of the source.

How the values were obtained:
[1] = tested on: Human-derived histiocyte lymphoma (U937/CCR2); assay: Leukocyte migration inhibitory activity (MCP-1 induced migration, CHEMOTAXICELL); assay type: cell-based; conditions: Homo sapiens, U-937, 1 h, U937/CCR2, MCP-1, 1 hr, read-out: Migration inhibition (%) ± SEM; for inhibition at 3 µM: test compound 3 μM; for inhibition at 30 µM: test compound 30 μM; for inhibition at 0.3 µM: test compound 0.3 μM; for inhibition at 1 µM: test compound 1 μM
Protocol: Human-derived histiocyte lymphoma (U937/CCR2), in which mouse-derived CCR2 had been highly expressed, was suspended in a 0.1% BSA-containing RPMI 1640 medium, to which a test compound had been added (5×10^6/ml), and the suspension was incubated for 20 min. A chemical solution (500 μl) (0.1% BSA-containing RPMI 1640 medium DMSO 1%), to which an MCP-1 ligand (1 μM) and the test compound had been added, was added to a 24-well plate. CHEMOTAXICELL was put thereon, and 200 μl of the cell suspension was added to the top layer, followed by migration under 5% carbon dioxide at 37° C. for one hr. The number of cells, which had migrated to the lower chamber, was counted with a particle count analyzer (CDA-500, SYSMEX CORPORATION), and the percentage migration inhibition was calculated by the following equation; Migration inhibition (%)={1−(number of migrated cells in the presence of test compound/number of migrated cells in the absence of test compound)}×100

[2] = target: Rho kinase (fused protein of bovine Rho kinase catalyst region and glutathione S-transferase) (Bos taurus, UniProt Q28021); assay: Rho kinase inhibitory activity (phosphorylation of S6 231–239 substrate, γ32P-ATP); assay type: biochemical; conditions: concentration inhibiting substrate phosphorylation by 50%
Protocol: This permits the substrate to be labeled with the radioisotope.
Thereafter, the substrate was adsorbed to a filter paper. ATP was washed away with a phosphoric acid solution, and the amount of the phosphorylated substrate was then measured with a liquid scintillation counter.

[3] = tested on: spontaneously hypertensive male rats (SHR); assay: Antihypertensive activity in spontaneously hypertensive rats; assay type: in vivo; conditions: Rattus norvegicus, po, 30 mg/kg oral, mean ± SEM of 3 to 4 SHRs, read-out: Blood pressure depression, %
Protocol: This test was carried out as follows. A test compound was dissolved in purified water, or alternatively the test compound was suspended in a 5% aqueous sodium carboxymethylcellulose solution. The solution or the suspension was forcibly administered into the gaster of SHR through an oral probe. The systolic pressure of SHR was measured with a bloodless sphygmometer (BP-98A, Softron Co.) immediately before the administration of the test compound and 3 to 4 hr after the administration of the test compound or 6 to 7 hr after the administration of the test compound. The percentage of blood pressure depression was calculated by the following equation: Antihypertensive activity (%)={(blood pressure before administration of test compound−blood pressure after administration of test compound)/blood pressure before administration of test compound}×100
Each compound was administered at 30 mg/kg, and the antihypertensive activity (%) was expressed in terms of the mean value of 3 to 4 SHRs and SEM (standard error of the mean).
For data with *, the blood pressure was measured 6 to 7 hr after the administration of the test compound, and, for data with no marks, the blood pressure was measured 3 to 4 hr after the administration of the test compound.

[4] = tested on: anti-GBM nephritis model WKY rats; assay: Albuminuria amelioration activity for anti-GBM nephritis model using WKY rats; assay type: in vivo, rat; conditions: 25 mg/liter together with drinking water for two weeks, 24 hr urine, control group 840.4 ± 82.2
Protocol: Anti-GBM antibody produced by immunizing domestic rabbits with a rat-derived GBM fraction was caudointravenously administered to WKY male rats of 9 weeks old to induce nephritis. […] During 24 hr from two weeks after the administration of the antibody, urine was collected, and the protein level of urine was measured to observe albuminuria amelioration activity.

[5] = systolic pressure 3 to 4 hr after administration

Chain of Rho kinase (fused protein of bovine Rho kinase catalyst region and glutathione S-transferase) (Q28021 92-354 limits assumed): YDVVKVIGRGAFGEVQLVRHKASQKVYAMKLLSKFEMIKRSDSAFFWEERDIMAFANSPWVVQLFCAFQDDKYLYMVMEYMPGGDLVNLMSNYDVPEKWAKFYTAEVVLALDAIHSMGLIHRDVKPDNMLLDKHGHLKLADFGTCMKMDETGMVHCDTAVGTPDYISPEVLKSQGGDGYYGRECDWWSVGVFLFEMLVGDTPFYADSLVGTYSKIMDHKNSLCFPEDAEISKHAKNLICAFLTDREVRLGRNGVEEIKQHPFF

## CC(NC(=O)Nc1ccc2c(c1)C(=O)NC2=O)c1ccc(Br)cc1 (centres unmarked) [Example 20, N-[1-(4-bromophenyl)ethyl]-N′-(1,3-dioxo-2,3-dihydro-1H-5-isoindolyl)urea]
[1]
  inhibition at 3 µM: 46.7 ± 19.4%
  inhibition at 30 µM: 95.4 ± 3.4%
[2]
  IC50: 110 nM

## c1ccc(CN2CCCC(Nc3ccc4[nH]ncc4c3)C2)cc1 (centres unmarked) [Example 21]
[2]
  IC50: 20 nM
[3]; [5]
  inhibition in vivo at 30 mg/kg: 37 ± 2.5%

## O=C(NCc1c(Cl)cccc1Cl)Nc1ccncc1 [Example 80, N-(2,6-dichlorobenzyl)-N′-(4-pyridyl)urea]
[1]
  inhibition at 3 µM: 26 ± 4.7%
  inhibition at 30 µM: 65.1 ± 17.3%
[2]
  IC50: 770 nM

## O=C(NCc1c(F)cccc1Cl)Nc1ccc2c(c1)C(=O)NC2=O [Example 83, N-(2-chloro-6-fluorobenzyl)-N′-(1,3-dioxo-2,3-dihydro-1H-6-isoindolyl)urea]
[1]
  inhibition at 3 µM: 16.1 ± 9.6%
  inhibition at 30 µM: 92.5 ± 3.3%
[2]
  IC50: 60 nM

## O=C(NCc1c(F)cccc1F)Nc1ccc2c(c1)C(=O)NC2=O [Example 90, N-(2,6-difluorobenzyl)-N′-(1,3-dioxo-2,3-dihydro-1H-5-isoindolyl)urea]
[1]
  inhibition at 30 µM: 78.3 ± 3.2%
[2]
  IC50: 69 nM

## O=C(NCc1c(F)cccc1F)Nc1ccc2[nH]ncc2c1 [Example 95, N-(2,6-difluorobenzyl)-N′-(1H-5-indazolyl)urea]
[1]
  inhibition at 3 µM: 17.1 ± 11.7%
  inhibition at 30 µM: 77.6 ± 6.4%
[2]
  IC50: 85 nM

## O=C(NCc1c(F)cccc1Cl)Nc1ccc2[nH]ncc2c1 [Example 102, N-(2-chloro-6-fluorobenzyl)-N′-(1H-5-indazolyl)urea]
[1]
  inhibition at 3 µM: 6.8 ± 17%
  inhibition at 30 µM: 96.7 ± 1%
[2]
  IC50: 79 nM

## c1ccc(CN2CCC(Nc3ccc4[nH]ncc4c3)CC2)cc1 [Example 126, N-(1-benzyl-4-piperidyl)-N-(1H-5-indazolyl)-amine]
[1]
  inhibition at 30 µM: 49.1 ± 4.6%
[3]; [5]
  inhibition in vivo at 30 mg/kg: 18 ± 3.5%

## c1cc2[nH]ncc2cc1NC1CCNCC1 [Example 128, N-(1H-5-indazolyl)-N-(4-piperidyl)amine]
[1]
  inhibition at 3 µM: 2.9 ± 12.3%
  inhibition at 30 µM: 45.9 ± 12.3%
[2]
  IC50: 287 nM

## c1ccc(CN2CCC(Nc3ccc4[nH]ncc4c3)C2)cc1 (centres unmarked) [Example 146, N-(1-benzyltetrahydro-1H-pyrrolyl)-N-(1H-5-indazolyl)amine]
[1]
  inhibition at 3 µM: 45.6 ± 9.5%
  inhibition at 30 µM: 93.9 ± 1.7%
[2]
  IC50: 32 nM

## Fc1ccc(CN2CCCC(Nc3ccc4[nH]ncc4c3)C2)cc1 (centres unmarked) [Example 164, N-[1-(4-fluorobenzyl)-3-piperidyl]-N-(1H-5-indazolyl)amine]
[2]
  IC50: 16 nM
[3]; [5]
  inhibition in vivo at 30 mg/kg: 35 ± 4.7%

## O=C(NCCF)C(c1ccccc1)N1CCCC(Nc2ccc3[nH]ncc3c2)C1 (centres unmarked) [Example 227, N1-(2-fluoroethyl)-2-[3-(1H-5-indazolylamino)piperidino]-2-phenylacetamide]
[1]
  inhibition at 3 µM: 100.3 ± 0.5%
[3]; [5]
  inhibition in vivo at 30 mg/kg: 22.2 ± 7.4%

## CC(C)C(c1ccccc1)N1CCCC(Nc2ccc3[nH]ncc3c2)C1 (centres unmarked) [Example 240, N-(1H-5-indazolyl)-N-[1-(2-methyl-1-phenyl-propyl)-3-piperidyl]amine]
[3]; [5]
  inhibition in vivo at 30 mg/kg: 21.1 ± 6.5%

## CCCN[C@H]1CC[C@@H](Nc2ccc3[nH]ncc3c2)CC1 [Example 243 (syn), N1-(1H-5-Indazolyl)-N4-propyl-1,4-cyclohexanediamine]
[3]; [5]
  inhibition in vivo at 30 mg/kg: 26.4 ± 5%

## FCCN[C@H]1CC[C@H](Nc2ccc3[nH]ncc3c2)CC1 [Example 246 (anti), N1-(2-Fluoroethyl)-N4-(1H-5-indazolyl)-1,4-cyclohexanediamine]
[3]; [5]
  inhibition in vivo at 30 mg/kg: 51.4 ± 0.9%

## FCCN[C@H]1CC[C@@H](Nc2ccc3[nH]ncc3c2)CC1 [Example 246 (syn), N1-(2-Fluoroethyl)-N4-(1H-5-indazolyl)-1,4-cyclohexanediamine]
[3]; [5]
  inhibition in vivo at 30 mg/kg: 37.2 ± 11.7%

## FCCNC1CCC(Nc2ccc3[nH]ncc3c2)CC1 (centres unmarked) [Example 246, N1-(2-fluoroethyl)-N4-(1H-5-indazolyl)-1,4-cyclohexanediamine]
[1]
  inhibition at 0.3 µM: 41.9 ± 15.4%
[4]
  Protein level of urine (mg/kg/day) SEM: 220.2 ± 17.7 mg/kg/day

## c1cc2[nH]ncc2cc1N[C@H]1CC[C@@H](NC2CC2)CC1 [Example 247 (syn), N1-Cyclopropyl-N4-(1H-5-indazolyl)-1,4-cyclohexanediamine]
[3]; [5]
  inhibition in vivo at 30 mg/kg: 43.3 ± 1.2%

## N[C@H]1CC[C@H](Nc2ccc3[nH]ncc3c2)CC1 [Example 248 (anti), N1-(1H-5-Indazolyl)-1,4-cyclohexanediamine]
[3]; [5]
  inhibition in vivo at 30 mg/kg: 18.8 ± 8%

## CCCN[C@H]1CC[C@@H](Nc2cccc3cnccc23)CC1 [Example 260 (syn)]
[1]
  inhibition at 1 µM: 56.5 ± 14.9%
[3]; [5]
  inhibition in vivo at 30 mg/kg: 19.6 ± 10.5%

## FCCN[C@H]1CC[C@H](Nc2cccc3cnccc23)CC1 [Example 261 (anti), N1-(2-Fluoroethyl)-N4-(5-isoquinolyl)-1,4-cyclohexanediamine]
[3]; [5]
  inhibition in vivo at 30 mg/kg: 47.3 ± 3.6%

## FCCN[C@H]1CC[C@@H](Nc2cccc3cnccc23)CC1 [Example 261 (syn), N1-(2-Fluoroethyl)-N4-(5-isoquinolyl)-1,4-cyclohexanediamine]
[1]
  inhibition at 0.3 µM: 24.2 ± 3.9%
  inhibition at 1 µM: 59.4 ± 10.4%
[3]; [5]
  inhibition in vivo at 30 mg/kg: 46.4 ± 4.8%

## FC(F)(F)CCCN1CCCC(Nc2cccc3cnccc23)C1 (centres unmarked) [Example 273, N-(5-isoquinolyl)-N-[1-(4,4,4-trifluorobutyl)-3-piperidyl]amine]
[3]; [5]
  inhibition in vivo at 30 mg/kg: 30.4 ± 7.3%

## Fc1cc(F)c(CN2CCCC(Nc3ccc4[nH]ncc4c3)C2)c(F)c1 (centres unmarked) [Example 282, N-(1H-5-indazolyl)-N-[1-(2,4,6-trifluorobenzyl)-3-piperidyl]amine]
[1]
  inhibition at 1 µM: 29.9 ± 4.1%

## CCCN1CCC(Nc2ccc3[nH]ncc3c2)CC1 [Example 286, N-(1H-5-indazolyl)-N-(1-propyl-4-piperidyl)-amine]
[3]; [5]
  inhibition in vivo at 30 mg/kg: 23.6 ± 8.6%

## c1cc2[nH]ncc2cc1NC1CCN(CC2CC2)CC1 [Example 287, N-[1-(cyclopropylmethyl)-4-piperidyl]-N-(1H-5-indazolyl)amine]
[3]; [5]
  inhibition in vivo at 30 mg/kg: 24.4 ± 6.8%

## FCCCN1CCC(Nc2ccc3[nH]ncc3c2)CC1 [Example 289, N-[1-(3-fluoropropyl)-4-piperidyl]-N-(1H-5-indazolyl)amine]
[3]; [5]
  inhibition in vivo at 30 mg/kg: 30.8 ± 5.7%

## FC(F)(F)CCN1CCC(Nc2ccc3[nH]ncc3c2)CC1 [Example 290, N-(1H-5-indazolyl)-N-[1-(3,3,3-trifluoropropyl)-4-piperidyl]amine]
[3]; [5]
  inhibition in vivo at 30 mg/kg: 17.2 ± 2.9%

## Fc1ccc(CN2CCCC(Nc3ccc4[nH]ncc4c3)C2)c(Cl)c1 (centres unmarked) [Example 293, N-[1-(2-chloro-4-fluorobenzyl)-3-piperidyl]-N-(1H-5-indazolyl)amine]
[1]
  inhibition at 3 µM: 93.5 ± 9.9%

## COC(=O)C(c1ccc(F)c(F)c1)N1CCCC(Nc2ccc3[nH]ncc3c2)C1 (centres unmarked) [Example 294]
[1]; test compound 0.1 μM
  inhibition at 0.1 µM: 87.4 ± 6.4%
[1]
  inhibition at 0.3 µM: 98.3 ± 1.4%

## FC(F)(F)c1ccc(CN2CCCC(Nc3ccc4[nH]ncc4c3)C2)cc1 (centres unmarked) [Example 298, N-(1H-5-indazolyl)-N-{1-[4-(trifluoromethyl)-benzyl]-3-piperidyl}amine]
[1]
  inhibition at 0.3 µM: 15.7 ± 9.9%
[3]; systolic pressure 6 to 7 hr after administration (data with *)
  inhibition in vivo at 30 mg/kg: 18.9 ± 3.1%

## CCCN1CCC(Nc2cccc3cnccc23)CC1 [Example 318, N-(5-isoquinolyl)-N-(1-propyl-4-piperidyl)-amine]
[3]; [5]
  inhibition in vivo at 30 mg/kg: 22.7 ± 5.1%

## CCC(CC)CN1CCC(Nc2cccc3cnccc23)CC1 [Example 320, N-[1-(2-ethylbutyl)-4-piperidyl]-N-(5-isoquinolyl)amine]
[1]
  inhibition at 1 µM: 82.9 ± 7%

## FCCCN1CCC(Nc2cccc3cnccc23)CC1 [Example 322, N-[1-(3-fluoropropyl)-4-piperidyl]-N-(5-isoquinolyl)amine]
[3]; [5]
  inhibition in vivo at 30 mg/kg: 41.4 ± 7.4%
